Where two headings read alike, the source gives them in different places.
Columns and labels:
[1] = system: maximal electroshock-induced seizures; experiment: Maximal electroshock-induced seizure (MES) test in mice; type: in vivo, mouse; conditions: for p/t, number of animals protected against MES-induced seizures / number tested / responders at 300 mg/kg: 300 mg/kg i.p.; for responders at 300 mg/kg / ED50: Mus musculus, ip; for responders at 300 mg/kg: read-out: percent of animals protected against MES-induced seizures; for PI (TD50/ED50): protective index; for onset of action: significant protection as early as 15 min after parenteral administration, MES
Outline: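 Mice given compound i.p. (300 mg/kg screen, then graded doses) 15, 30, 60 or 120 min before ear-clip electroshock (25 mA, 50 Hz, 0.2 s); tonic hind limb extension scored as seizure. ED50 (dose protecting 50% of animals) from Litchfield–Wilcoxon dose-response lines.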

GABAA receptors = experiment: Radioligand binding assay, [3H]muscimol, rat cerebral cortex; conditions: for Percent of Specific Binding, GABAA: compound 1 × 10^−6 M, [3H]muscimol, rat cerebral cortex;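 as to Percent of Specific Binding, GABAA: low percentages indicate weak binding of the compound to the receptor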
Description: Binding experiments were conducted in 96-well microplates in a total volume of 200 μL of appropriate buffer. The reaction mixture included 50 μL solution of test compound, 50 μL of radioligand, and […] the tissue suspension. Rat cerebral cortex was used for each receptor. […] Radioligand binding data were analyzed using iterative curve fitting routines (GraphPAD/Prism, Version 3.0, San Diego, CA, USA). Ki values were calculated from the Cheng and Prusoff equation [36].

[2] = system: benzodiazepine (BDZ)-binding sites; experiment: Radioligand binding assay, [3H]flunitrazepam, rat cerebral cortex; conditions: compound 1 × 10^−6 M;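 also: low percentages indicate weak binding of the compound to the site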
Description: Binding experiments were conducted in 96-well microplates in a total volume of 200 μL of appropriate buffer. The reaction mixture included 50 μL solution of test compound, 50 μL of radioligand, and […] the tissue suspension. Rat cerebral cortex was used for each receptor. The radioactivity was measured in MicroBeta TriLux 1450-liquid scintillation counter (PerkinElmer, Waltham, MA, USA). Radioligand binding data were analyzed using iterative curve fitting routines (GraphPAD/Prism, Version 3.0, San Diego, CA, USA). Ki values were calculated from the Cheng and Prusoff equation [36].

[3] = system: threshold for electroconvulsions; set-up: method as in PMID 22732650; conditions: cited from earlier work
[4] = system: motor performance in mice; experiment: Chimney test (motor performance impairment, acute adverse effects); conditions: i.p.
Description: Adult male Swiss mice (weighing 22–26 g) that were kept in colony cages with free access to food and tap water, housed under standardized housing conditions, were used. After seven days of adaptation to laboratory conditions, the animals were randomly assigned to experimental groups each comprised of eight mice. Each mouse was used only once. Procedures involving animals and their care were conducted in accordance with current European Community and Polish legislation on animal experimentation. The experimental protocols and procedures described in this manuscript were approved by the First Local Ethics Committee at the Medical University in Lublin and the Second Local Ethics Committee at the University of Life Sciences in Lublin and complied with the European Communities Council Directive of 24 November 1986 (86/609/EEC).
In this test, the animals had to climb backwards up a plastic tube (3 cm inner diameter, 30 cm length), and motor performance impairment was indicated by the inability of the mice to climb backward up the transparent tube within 60 s. […] To evaluate each TD50 value, at least four groups of animals (each group consisted of eight mice) injected with various doses of the appropriate compound were challenged with the chimney test. A dose-response relationship line was calculated on the basis of the percentage of mice showing motor deficits by means of the log-probit method according to Litchfield and Wilcoxon.

[5] = pretreatment time 120 min, mice
[6] = 0.25 h, pretreatment time 15 min, mice
[7] = 0.5 h, pretreatment time 30 min, mice
[8] = 1 h, pretreatment time 60 min, mice
[9] = 2 h, pretreatment time 120 min, mice
[10] = pretreatment time 15 min, mice, read-out: ED50 ± S.E. (MES test)
[11] = pretreatment time 30 min, mice, read-out: ED50 ± S.E. (MES test)
[12] = pretreatment time 60 min, mice, read-out: ED50 ± S.E. (MES test)
[13] = pretreatment time 120 min, mice, read-out: ED50 ± S.E. (MES test)
[14] = chimney TD50 / MES ED50, pretreatment time 15 min
[15] = chimney TD50 / MES ED50, pretreatment time 30 min
[16] = chimney TD50 / MES ED50, pretreatment time 60 min
[17] = chimney TD50 / MES ED50, pretreatment time 120 min

SMILES	p/t, number of animals protected against MES-induced seizures / number tested ([1]; pretreatment time 15 min, mice)	p/t, number of animals protected against MES-induced seizures / number tested ([1]; pretreatment time 30 min, mice)	p/t, number of animals protected against MES-induced seizures / number tested ([1]; pretreatment time 60 min, mice)	p/t, number of animals protected against MES-induced seizures / number tested [1, 5]	responders at 300 mg/kg [1, 6] [%]	responders at 300 mg/kg [1, 7] [%]	responders at 300 mg/kg [1, 8] [%]	responders at 300 mg/kg [1, 9] [%]	ED50 [1, 10] [mg/kg]	ED50 [1, 11] [mg/kg]	ED50 [1, 12] [mg/kg]	ED50 [1, 13] [mg/kg]	PI (TD50/ED50) [1, 14]	PI (TD50/ED50) [1, 15]	PI (TD50/ED50) [1, 16]	PI (TD50/ED50) [1, 17]	onset of action ([1]; mice)	Percent of Specific Binding, GABAA (GABAA receptors) [%]	Percent of Specific Binding, BDZ [2] [%]	melting point [°C]	other results
S=c1[nH]nc(-c2cccc(Cl)c2)n1-c1ccc(Br)cc1 [Compound 6a, 4-(4-Bromophenyl)-5-(3-chlorophenyl)-2,4-dihydro-3H-1,2,4-triazole-3-thione]	4/8	6/8	6/8	3/8	50	75	75	37.5	298 ± 21.1	218 ± 21.7	209 ± 27.3	336 ± 14	1.2	1.8	1.9	1.3	quick onset of action	17	20	–	anticonvulsant activity (in words) ([1]; MES test, mice): slightly weaker than that of valproate; effect of added compound on affinity of GABA to GABAA receptors (GABAA receptors; radioligand binding, GABA in combination with compound): did not lead to an increase; elevation of the threshold for electroconvulsions [3]: 70%
Fc1ccccc1-n1c(-c2ccc(Cl)cc2)n[nH]c1=S [Compound 12a, 5-(4-Chlorophenyl)-4-(2-fluorophenyl)-2,4-dihydro-3H-1,2,4-triazole-3-thione]	6/8	6/8	7/8	7/8	75	75	87.5	87.5	208 ± 25.3	186 ± 24.6	218 ± 21.7	209 ± 27.3	2.6	2.7	1.9	2.3	quick onset of action	13	18	240 to 242	ED50 ([1]; pretreatment times 15, 30, 60, 120 min, read-out: ED50 (MES), range over pretreatment times): 186 to 218 mg/kg
Fc1ccccc1-n1c(-c2cccc(Cl)c2)n[nH]c1=S [Compound 1a, 5-(3-Chlorophenyl)-4-(2-fluorophenyl)-2,4-dihydro-3H-1,2,4-triazole-3-thione]	0/8	0/8	1/8	1/8	0	0	12.5	12.5	–	–	–	–	–	–	–	–	–	8	14	170 to 171	–
CCCC(CCC)C(=O)O [Valproate, Magnesium valproate]	–	–	–	–	–	–	–	–	–	217 ± 9.4	218 ± 18.9	247 ± 21.6	–	–	–	–	–	–	–	–	TD50 ± S.E. (chimney test) ([4]; pretreatment time 15 min): 363.3 ± 14.2 mg/kg; TD50 ± S.E. (chimney test) ([4]; pretreatment time 30 min): 372.9 ± 16.9 mg/kg; TD50 ± S.E. (chimney test) ([4]; pretreatment time 60 min): 417.3 ± 9.5 mg/kg; TD50 ± S.E. (chimney test) ([4]; pretreatment time 120 min): 512.3 ± 20.2 mg/kg
